pIC50: −log10 of the molar value.
Experiments:
HL60 cells = experiment: Activity on the differentiation of HL60 cells (NBT reduction); format: cell-based; conditions: for AC50: Homo sapiens, HL-60, 96 h, HL60 cells, culturing for 4 days, NBT-positive cells counted; for differentiation-inducing activity on HL60 cells compared with calcitriol: comparison in words
From the text: The biological properties analogous to vitamin D may also be measured by means of the capacity of the product to induce the differentiation of promyelocytic leukemia cells HL60. The protocol and also the results obtained with the compounds according to the invention are described in Example 8 of the present patent application.
Calcitrol induces the differentiation of promyelocytic leukaemia cells (HL60) into monocytes/macrophages. This differentiation-inductive effect is a well-characterized marker of cellular vitamin D. One of the most important antimicrobial products of macrophages is hydrogen peroxide, which may be analysed experimentally by the reduction of NBT (Nitroblue Tetrazolium).
The method used is as follows: the HL60 cells are inoculated into 6-well plates and then treated immediately with a test compound. After culturing for 4 days, the cells are incubated with phorbol TPA ester and NBT for a short period and the differentiated cells, i.e., the ones that are positive to NBT, are counted.

human VDR receptor = target: T1, human VDR receptor (Homo sapiens, UniProt P11473); experiment: VDR agonist activity, HeLa cotransfection with reporter plasmid p240Hase-CAT; format: cell-based; conditions: for AC50: HeLa cells, treatment for 18 hours, CAT activity by ELISA; for VDR agonist activity compared with calcitriol: comparison in words
T1 construct: expressed in transfected cells; host or cells: HeLa
T1 sequence (P11473 1-427): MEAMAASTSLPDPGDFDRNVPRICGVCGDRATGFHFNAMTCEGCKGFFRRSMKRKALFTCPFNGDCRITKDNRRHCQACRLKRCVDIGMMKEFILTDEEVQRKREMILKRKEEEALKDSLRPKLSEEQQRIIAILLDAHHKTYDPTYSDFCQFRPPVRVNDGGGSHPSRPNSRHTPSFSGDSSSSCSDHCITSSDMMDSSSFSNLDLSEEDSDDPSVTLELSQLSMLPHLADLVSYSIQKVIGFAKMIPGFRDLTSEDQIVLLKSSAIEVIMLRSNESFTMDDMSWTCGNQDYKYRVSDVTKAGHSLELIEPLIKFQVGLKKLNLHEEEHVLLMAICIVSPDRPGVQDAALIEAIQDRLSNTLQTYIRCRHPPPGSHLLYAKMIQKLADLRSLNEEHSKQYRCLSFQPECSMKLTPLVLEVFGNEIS
Method: By way of example, the VDR agonist activity may be tested on the HeLa cell line by cotransfection of an expression vector of the human VDR receptor and of the reporter plasmid p240Hase-CAT. The agonist activity may also be characterized in this cotransfection system, by determining the dose required to achieve 50% of the maximum activity of the product (AC50).
18 hours after cotransfection, the test compound is added to the medium. After treatment for 18 hours, the CAT activity of the cell lysates is assayed by means of an ELISA test (Enzyme Linked ImmunoSorbent Assay, sold by Roche Molecular Biochemicals).

[1] = system: normal human keratinocytes; experiment: Activity on the proliferation of human keratinocytes (BrdU incorporation); conditions: for pIC50: Homo sapiens, Keratinocyte, 120 h, read-out: IC50-proliferation of KHNs
Method: The biological properties analogous to vitamin D may also be measured by means of the capacity of the product to inhibit the proliferation of normal human keratinocytes (NHK in culture). The product is added to NHKs cultured under conditions promoting the proliferative state. The product is left in contact with the cells for five days. The number of proliferative cells is measured by incorporation of bromodeoxyuridine (BRdU) into the DNA.
The method used is as follows: normal human keratinocytes are inoculated at low density into a 24-well plate. After 4 hours, the test compounds are added to the culture medium. After culturing for 5 days, the proliferation of the keratinocytes is determined by incorporating 5-bromo-2′-deoxyuridine (BrdU) into the DNA. The amount of BrdU incorporated is then measured using the ELISA test (Enzyme Linked ImmunoSorbent Assay, sold by Roche Molecular Biochemicals).

## CCCc1cc(C(O)(CC)CC)ccc1-c1cc(CCc2ccc(CO)c(CO)c2)ccc1C [Example 5, (4-{2-[4′-(1-Ethyl-1-hydroxypropyl)-6-methyl-2′-propylbiphenyl-3-yl]ethyl}-2-hydroxymethylphenyl)methanol]
HL60 cells
  AC50: 1.8 nM
  differentiation-inducing activity on HL60 cells compared with calcitriol: markedly superior activity
Human VDR receptor
  AC50: 0.6 nM
  VDR agonist activity compared with calcitriol: superior activity
[1]
  pIC50: 8.62
[1]; fold greater than calcitriol
  activity on keratinocyte proliferation relative to calcitriol: more than 5 times

## CCC(O)(CC)c1ccc(-c2cc(NCc3ccc(CO)c(CO)c3)ccc2C)c(C)c1 [Example 6, (4-{[4′-(1-Ethyl-1-hydroxypropyl)-6,2′-dimethylbiphenyl-3-ylamino]-methyl}-2-hydroxymethylphenyl)methanol]
HL60 cells
  AC50: 147 nM
  differentiation-inducing activity on HL60 cells compared with calcitriol: less good activity compared with calcitriol
Human VDR receptor
  AC50: 50 nM
  VDR agonist activity compared with calcitriol: less good activity compared with calcitriol
[1]
  pIC50: 6.91
[1]; comparison in words
  inhibitory activity on keratinocyte proliferation compared with calcitriol: less good activity compared with calcitriol

## CCc1cc(C(O)(CC)CC)ccc1-c1cc(OCc2ccc(CO)c(CO)c2)ccc1CC [Example 2, {5-[6,2′-Diethyl-4′-(1-ethyl-1-hydroxypropyl)biphenyl-3-yloxymethyl]-2-hydroxymethylphenyl}methanol]
HL60 cells
  AC50: 15 nM
Human VDR receptor
  AC50: 4.1 nM
[1]
  pIC50: 7.28

## CCc1ccc(OCc2ccc(CO)c(CO)c2)cc1-c1ccc(C(O)(CC)CC)cc1C(C)C [Example 4, {4-[6-Ethyl-4′-(1-ethyl-1-hydroxypropyl)-2′-isopropylbiphenyl-3-yloxymethyl]-2-hydroxymethylphenyl}methanol]
HL60 cells
  AC50: 27 nM
Human VDR receptor
  AC50: 3.2 nM
[1]
  pIC50: 7.59

## CCCc1cc(C(O)(CC)CC)ccc1-c1cc(OCc2ccc(CO)c(CO)c2)ccc1C [Example 1, {5-[4′-(1-Ethyl-1-hydroxypropyl)-6-methyl-2′-propylbiphenyl-3-yloxy-methyl]-2-hydroxymethylphenyl}methanol]
HL60 cells
  AC50: 7.6 nM
Human VDR receptor
  AC50: 2.4 nM
[1]
  pIC50: 7.80

## CCCc1cc(C(O)(CC)CC)ccc1-c1cc(OCc2ccc(CO)c(CO)c2)ccc1CC [Example 3, {4-[6-Ethyl-4′-(1-ethyl-1-hydroxypropyl)-2′-propylbiphenyl-3-yloxymethyl]-2-hydroxymethylphenyl}methanol]
HL60 cells
  AC50: 11 nM
Human VDR receptor
  AC50: 2.2 nM
[1]
  pIC50: 7.82

## C=C1/C(=C\C=C2/CCC[C@]3(C)[C@@H]([C@H](C)CCCC(C)(C)O)CC[C@@H]23)C[C@@H](O)C[C@@H]1O [Calcitriol, 1,25-dihydroxyvitamin D3, reference compound]
HL60 cells
  AC50: 10.7 nM

— patent publication US6924400B2, “Triaromatic vitamin D analogues” (Galderma Research & Development, SNC, priority 2001, dated 2005)
